Molecules are shown by their SMILES. pIC50: −log10 of the molar value.

Usually pIC50 stands for the negative decadic logarithm of the IC50, by convention in mol/L.

A short description of the experiment: Antagonist activity at human CCR2 in THP1 cells assessed as inhibition of MCP1-induced chemotaxis.
In the case of `O=C(CNC(=O)c1cccc(C(F)(F)F)c1)N[C@@H]1CCN(Cc2ccc(OC(F)(F)F)cc2)C1`, the negative logarithm of the IC50 (pIC50) was 6.99.
Consider `CSc1ccc(CN2CC[C@@H](NC(=O)CNC(=O)c3cccc(C(F)(F)F)c3)C2)cc1`, for which the negative logarithm of the IC50 (pIC50) is 7.68.
Take `O=C(CNC(=O)c1cccc(C(F)(F)F)c1)N[C@@H]1CCN(Cc2ccccc2)C1`: the pIC50 was 6.38.
Consider `COc1cc(CN2CC[C@@H](NC(=O)CNC(=O)c3cc(C(F)(F)F)ccc3N)C2)ccc1O`, for which the pIC50 is 7.85.
As to `COc1ccc(CN2CC[C@@H](NC(=O)CNC(=O)c3cc(C(F)(F)F)ccc3N)C2)cc1N`, the negative-log IC50 (pIC50) was 8.06.
Turning to `COc1ccc(CN2CC[C@@H](NC(=O)CNC(=O)c3cc(C(F)(F)F)ccc3N)C2)cc1`, the pIC50 was 7.96.
On to `Nc1ccc(C(F)(F)F)cc1C(=O)NCC(=O)N[C@@H]1CCN(Cc2ccc(Br)cc2)C1`, for which the pIC50 was 8.59.
In the case of `Nc1ccc(I)cc1C(=O)NCC(=O)N[C@@H]1CCN(Cc2ccc(Cl)cc2)C1`, the pIC50 was 7.66.
To `Cc1ccc(CN2CC[C@@H](NC(=O)CNC(=O)c3cc(C(F)(F)F)ccc3N)C2)cc1N` belongs 7.92.
Under `Nc1cc(CN2CC[C@@H](NC(=O)CNC(=O)c3cc(C(F)(F)F)ccc3N)C2)ccc1Cl` stands 7.96.
As for `Nc1ccc(C(F)(F)F)cc1C(=O)NCC(=O)N[C@@H]1CCN(Cc2ccc(O)cc2)C1`, the negative logarithm of the IC50 (pIC50) is 8.29.
For `C=Cc1ccc(CN2CC[C@@H](NC(=O)CNC(=O)c3cc(C(F)(F)F)ccc3N)C2)cc1`, the pIC50 was 8.41.
To `CCc1ccc(CN2CC[C@@H](NC(=O)CNC(=O)c3cc(C(F)(F)F)ccc3N)C2)cc1` belongs 9.05.
For `Cc1ccc(CN2CC[C@@H](NC(=O)CNC(=O)c3cc(C(F)(F)F)ccc3N)C2)cc1`, the negative logarithm of the IC50 (pIC50) is 8.51.
For `Nc1ccc(C(F)(F)F)cc1C(=O)NCC(=O)N[C@@H]1CCN(Cc2ccc(Cl)cc2)C1`, the pIC50 was 8.44.
As for `Cc1ccc(CN2CC[C@@H](NC(=O)CNC(=O)c3cccc(C(F)(F)F)c3)C2)cc1`, the negative logarithm of the IC50 (pIC50) was 7.91.
Consider `Nc1ccc(OC(F)(F)F)cc1C(=O)NCC(=O)N[C@@H]1CCN(Cc2ccc(Cl)cc2)C1`, for which the pIC50 was 7.37.
Take `Nc1ccc([N+](=O)[O-])cc1C(=O)NCC(=O)N[C@@H]1CCN(Cc2ccc(Cl)cc2)C1`: the pIC50 is 7.37.
In the case of `O=C(CNC(=O)c1cccc([N+](=O)[O-])c1)N[C@@H]1CCN(Cc2ccc(Cl)cc2)C1`, the negative-log IC50 (pIC50) was 6.35.
Turning to `O=C(CNC(=O)c1cccc(OC(F)(F)F)c1)N[C@@H]1CCN(Cc2ccc(Cl)cc2)C1`, the pIC50 is 6.44.
As to `O=C(CNC(=O)c1cccc(Br)c1)N[C@@H]1CCN(Cc2ccc(Cl)cc2)C1`, the pIC50 is 6.33.
Consider `O=C(CNC(=O)c1cccc(C(F)(F)F)c1)N[C@@H]1CCN(Cc2ccccc2-c2ccc3ccccc3c2)C1`, for which the negative logarithm of the IC50 (pIC50) was 7.13.
Take `COc1cc(CN2CC[C@@H](NC(=O)CNC(=O)c3cccc(C(F)(F)F)c3)C2)ccc1O`: the pIC50 was 7.11.
On to `O=C(CNC(=O)c1cccc(C(F)(F)F)c1)N[C@@H]1CCN(Cc2ccc(F)cc2)C1`, for which the pIC50 is 6.92.
Turning to `O=C(CNC(=O)c1cccc(C(F)(F)F)c1)N[C@@H]1CCN(Cc2ccc(O)cc2)C1`, the pIC50 was 8.26.
Take `C=Cc1ccc(CN2CC[C@@H](NC(=O)CNC(=O)c3cccc(C(F)(F)F)c3)C2)cc1`: the pIC50 was 8.21.
`O=C(CNC(=O)c1cccc(C(F)(F)F)c1)N[C@@H]1CCN(Cc2ccc(Br)cc2)C1`: the pIC50 was 7.68.
To `CCc1ccc(CN2CC[C@@H](NC(=O)CNC(=O)c3cccc(C(F)(F)F)c3)C2)cc1` belongs 8.03; to `COc1ccc(CN2CC[C@@H](NC(=O)CNC(=O)c3cccc(C(F)(F)F)c3)C2)cc1`, 7.46.
As for `Cc1ccccc1CN1CC[C@@H](NC(=O)CNC(=O)c2cccc(C(F)(F)F)c2)C1`, the pIC50 is 6.90.
Regarding `O=C(CNC(=O)c1cccc(C(F)(F)F)c1)N[C@@H]1CCN(Cc2ccccc2Cl)C1`, the pIC50 is 6.38.
Consider `Cc1ccc(CN2CC[C@@H](NC(=O)CNC(=O)c3cc(C(F)(F)F)ccc3N)C2)c(C)c1`, for which the pIC50 is 9.08.
For `O=C(CCNC(=O)c1cccc(C(F)(F)F)c1)N[C@@H]1CCN(Cc2ccc(Cl)cc2)C1`, the pIC50 was 5.00.
With `CC(NC(=O)c1cccc(C(F)(F)F)c1)C(=O)N[C@@H]1CCN(Cc2ccc(Cl)cc2)C1` (stereo partly drawn), the pIC50 is 4.66.
As to `COc1ccc(CN2CC[C@@H](NC(=O)CNC(=O)c3cc(C(F)(F)F)ccc3N)C2)cc1O`, the negative-log IC50 (pIC50) is 8.04.
On to `Nc1cc(CN2CC[C@@H](NC(=O)CNC(=O)c3cc(C(F)(F)F)ccc3N)C2)ccc1O`, for which the pIC50 is 7.74.
As to `Cc1ccc(CN2CC[C@@H](NC(=O)CNC(=O)c3cccc(C(F)(F)F)c3)C2)c(C)c1` [(R)-N-(2-(1-(2,4-dimethylbenzyl)pyrrolidin-3-ylamino)-2-oxoethyl)-3-(trifluoromethyl)benzamide], the pIC50 was 7.80.
Consider `O=C(CNC(=O)c1cccc(C(F)(F)F)c1)N[C@@H]1CCN(Cc2ccc(Cl)cc2)C1` [(R)-N-(2-(1-(4-chlorobenzyl)pyrrolidin-3-ylamino)-2-oxoethyl)-3-(trifluoromethyl)benzamide], for which the pIC50 is 7.62.

(Values after BindingDB's records for doi:10.1016/j.bmcl.2008.02.015 (Deltagen Research Laboratories (Former Combichem), 2008).)
